Where two headings read alike, the source gives them in different places.
Assays:
Format in all cases: biochemical
[1] = biological target: T1, human MAP4K4 kinase domain (Homo sapiens, UniProt O95819); experiment: MAP4K4 kinase activity, CisBio HTRF Transcreener ADP assay
T1 construct: 0.5 nM human MAP4K4 kinase domain (Invitrogen); purchased Invitrogen
Source text: Compounds of the present invention were screened for their inhibitory activity against MAP4K4, versus selected off-target hits found with early members of this chemical series. MAP4K4 kinase activity was monitored using the CisBio HTRF Transcreener ADP assay, a competitive immunoassay with a reproducible Z′>0.6. In the detection step, endogenous ADP and d2-labeled ADP compete for binding an anti-ADP monoclonal antibody labelled with Eu^3+ cryptate. A ratiometric fluorescent read-out is used at 665 and 620 nm. Reactions were performed in the presence of 1% DMSO with ATP added at Km (10 μM), 0.5 nM human MAP4K4 kinase domain (Invitrogen), 1 μM biotin-myelin basic protein as substrate (Invitrogen), and extension of reaction time to 2 h. Assays were run in Greiner low volume plates with a final reaction volume of 10 μl. The MAP4K4 inhibition data are provided in Table 41 below for selected compounds of the present invention. The data has been categorised based on the IC50 value of the compound as “A”, “B” or “C”. IC50: A≤100 nM; 100 nM<B≤1 μM; 1 μM<C; nd=not determined.

TNIK/MAP4K7 = TNIK/MAP4K7 (Homo sapiens, UniProt Q9UKE5); experiment: Kinase selectivity panel, TNIK/MAP4K7; conditions: read-out: pIC50 TNIK/MAP4K7 (converted)
Source text: (§1) The data in Table 42 also provides the fold selectivity of the two compounds in favour of MAP4K4 over the tested kinase. The fold selectivity is indicated in parenthesis.

GCK/MAP4K2 = biological target: T2, GCK/MAP4K2 (Homo sapiens, UniProt Q12851); experiment: Kinase selectivity panel, GCK/MAP4K2; conditions: for fold selectivity MAP4K4 over GCK/MAP4K2: in favour of MAP4K4; for IC50: read-out: pIC50 GCK/MAP4K2 (converted)
T2 sequence (Q12851 1-820): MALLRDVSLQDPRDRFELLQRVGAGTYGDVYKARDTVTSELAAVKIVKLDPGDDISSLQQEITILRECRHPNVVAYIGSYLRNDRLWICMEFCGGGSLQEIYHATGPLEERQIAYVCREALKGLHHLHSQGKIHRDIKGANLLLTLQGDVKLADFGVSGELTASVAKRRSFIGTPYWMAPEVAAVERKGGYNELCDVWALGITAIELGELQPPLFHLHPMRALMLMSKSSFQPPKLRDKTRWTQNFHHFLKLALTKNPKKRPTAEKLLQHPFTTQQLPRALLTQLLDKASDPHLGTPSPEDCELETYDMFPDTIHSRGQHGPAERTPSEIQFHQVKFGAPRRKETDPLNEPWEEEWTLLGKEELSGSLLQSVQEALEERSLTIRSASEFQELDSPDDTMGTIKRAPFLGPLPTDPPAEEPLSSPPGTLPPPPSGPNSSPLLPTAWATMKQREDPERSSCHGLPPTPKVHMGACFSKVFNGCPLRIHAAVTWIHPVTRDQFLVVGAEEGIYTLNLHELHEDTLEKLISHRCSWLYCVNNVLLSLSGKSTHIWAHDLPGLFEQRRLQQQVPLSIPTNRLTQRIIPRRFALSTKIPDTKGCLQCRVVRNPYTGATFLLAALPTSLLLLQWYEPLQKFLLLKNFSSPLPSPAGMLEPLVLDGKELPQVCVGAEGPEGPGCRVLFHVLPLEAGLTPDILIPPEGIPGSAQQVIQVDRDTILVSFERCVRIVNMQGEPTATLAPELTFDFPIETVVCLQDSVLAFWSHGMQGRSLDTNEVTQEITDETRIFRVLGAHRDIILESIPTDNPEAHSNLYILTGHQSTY
Source text: as §1

GLK/MAP4K3 = biological target: T3, GLK/MAP4K3 (Homo sapiens, UniProt Q8IVH8); experiment: Kinase selectivity panel, GLK/MAP4K3; conditions: for fold selectivity MAP4K4 over GLK/MAP4K3: in favour of MAP4K4; for IC50: read-out: pIC50 GLK/MAP4K3 (converted)
T3 sequence (Q8IVH8 1-894): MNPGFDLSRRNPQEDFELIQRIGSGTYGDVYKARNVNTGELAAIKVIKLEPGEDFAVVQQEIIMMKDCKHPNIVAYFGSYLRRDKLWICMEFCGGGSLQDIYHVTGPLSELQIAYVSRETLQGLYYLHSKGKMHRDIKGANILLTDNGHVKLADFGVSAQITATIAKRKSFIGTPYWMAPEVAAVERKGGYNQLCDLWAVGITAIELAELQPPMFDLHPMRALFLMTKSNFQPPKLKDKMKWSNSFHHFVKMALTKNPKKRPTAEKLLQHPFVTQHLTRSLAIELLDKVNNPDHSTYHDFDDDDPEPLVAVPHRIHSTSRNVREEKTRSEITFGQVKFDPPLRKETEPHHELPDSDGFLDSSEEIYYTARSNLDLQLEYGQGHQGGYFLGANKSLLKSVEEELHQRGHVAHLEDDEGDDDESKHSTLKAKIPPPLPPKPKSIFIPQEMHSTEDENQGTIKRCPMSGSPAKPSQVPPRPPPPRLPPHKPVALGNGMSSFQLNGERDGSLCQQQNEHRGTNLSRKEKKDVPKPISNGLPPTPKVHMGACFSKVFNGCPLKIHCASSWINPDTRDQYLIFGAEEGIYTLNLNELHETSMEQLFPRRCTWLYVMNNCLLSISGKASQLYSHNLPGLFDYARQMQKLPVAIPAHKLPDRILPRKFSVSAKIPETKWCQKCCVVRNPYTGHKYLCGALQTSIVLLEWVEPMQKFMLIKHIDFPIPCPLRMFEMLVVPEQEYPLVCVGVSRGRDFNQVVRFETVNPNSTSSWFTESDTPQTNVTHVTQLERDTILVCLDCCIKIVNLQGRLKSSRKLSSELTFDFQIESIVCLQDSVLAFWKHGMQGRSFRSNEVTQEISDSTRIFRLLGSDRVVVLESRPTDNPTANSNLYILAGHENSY
Source text: as §1

KHS/MAP4K5 = KHS/MAP4K5 (Homo sapiens, UniProt Q9Y4K4); experiment: Kinase selectivity panel, KHS/MAP4K5; conditions: for fold selectivity MAP4K4 over KHS/MAP4K5: in favour of MAP4K4; for IC50: read-out: pIC50 KHS/MAP4K5 (converted)
Source text: as §1

ABL1 = ABL1 (Homo sapiens, UniProt P00519); experiment: Kinase selectivity panel, ABL1; conditions: for fold selectivity MAP4K4 over ABL1: in favour of MAP4K4; for IC50: read-out: pIC50 ABL1 (converted)
Source text: as §1

MLK3/MAP3K11 = MLK3/MAP3K11 (Homo sapiens, UniProt Q16584); experiment: Kinase selectivity panel, MLK3/MAP3K11; conditions: for fold selectivity MAP4K4 over MLK3/MAP3K11: in favour of MAP4K4; for IC50: read-out: pIC50 MLK3/MAP3K11 (converted)
Source text: as §1

NUAK1 = biological target: T4, NUAK1 (Homo sapiens, UniProt O60285); experiment: Kinase selectivity panel, NUAK1; conditions: for fold selectivity MAP4K4 over NUAK1: in favour of MAP4K4; for IC50: read-out: pIC50 NUAK1 (converted)
T4 sequence (O60285 1-661): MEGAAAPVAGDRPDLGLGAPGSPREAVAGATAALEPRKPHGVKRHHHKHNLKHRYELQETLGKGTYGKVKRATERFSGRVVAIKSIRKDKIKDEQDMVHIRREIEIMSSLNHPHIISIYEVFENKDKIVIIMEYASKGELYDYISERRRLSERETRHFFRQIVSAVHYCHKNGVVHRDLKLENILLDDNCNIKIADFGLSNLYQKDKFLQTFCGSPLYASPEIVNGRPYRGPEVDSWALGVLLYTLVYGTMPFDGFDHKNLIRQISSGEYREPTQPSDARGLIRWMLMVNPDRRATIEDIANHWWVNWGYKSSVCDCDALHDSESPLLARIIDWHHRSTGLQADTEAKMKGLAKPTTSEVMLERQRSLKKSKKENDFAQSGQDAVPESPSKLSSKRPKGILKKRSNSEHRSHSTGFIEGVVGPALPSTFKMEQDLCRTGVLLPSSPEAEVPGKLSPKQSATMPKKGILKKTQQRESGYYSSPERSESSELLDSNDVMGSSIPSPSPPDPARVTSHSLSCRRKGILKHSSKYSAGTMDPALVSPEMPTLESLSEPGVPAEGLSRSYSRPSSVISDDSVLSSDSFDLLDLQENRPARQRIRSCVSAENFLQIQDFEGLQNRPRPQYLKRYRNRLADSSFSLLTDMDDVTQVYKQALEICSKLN
Source text: as §1

MINK1/MAP4K6 = MINK1/MAP4K6 (Homo sapiens, UniProt Q8N4C8); experiment: Kinase selectivity panel, MINK1/MAP4K6; conditions: read-out: pIC50 MINK1/MAP4K6 (converted)
Source text: as §1

Aurora B = Aurora B (Homo sapiens, UniProt Q96GD4); experiment: Kinase selectivity panel, Aurora B; conditions: for fold selectivity MAP4K4 over Aurora B: in favour of MAP4K4
Source text: as §1

MLK1/MAP3K9 = MLK1/MAP3K9 (Homo sapiens, UniProt P80192); experiment: Kinase selectivity panel, MLK1/MAP3K9; conditions: for fold selectivity MAP4K4 over MLK1/MAP3K9: in favour of MAP4K4; for IC50: read-out: pIC50 MLK1/MAP3K9 (converted)
Source text: as §1

[2] = IC50 category, ATP at Km (10 μM), 0.5 nM kinase domain, 2 h, read-out: MAP4K4
[3] = read-out: pIC50 MAP4K4 (converted)

Chain of ABL1 (P00519 whole entry, species assumed): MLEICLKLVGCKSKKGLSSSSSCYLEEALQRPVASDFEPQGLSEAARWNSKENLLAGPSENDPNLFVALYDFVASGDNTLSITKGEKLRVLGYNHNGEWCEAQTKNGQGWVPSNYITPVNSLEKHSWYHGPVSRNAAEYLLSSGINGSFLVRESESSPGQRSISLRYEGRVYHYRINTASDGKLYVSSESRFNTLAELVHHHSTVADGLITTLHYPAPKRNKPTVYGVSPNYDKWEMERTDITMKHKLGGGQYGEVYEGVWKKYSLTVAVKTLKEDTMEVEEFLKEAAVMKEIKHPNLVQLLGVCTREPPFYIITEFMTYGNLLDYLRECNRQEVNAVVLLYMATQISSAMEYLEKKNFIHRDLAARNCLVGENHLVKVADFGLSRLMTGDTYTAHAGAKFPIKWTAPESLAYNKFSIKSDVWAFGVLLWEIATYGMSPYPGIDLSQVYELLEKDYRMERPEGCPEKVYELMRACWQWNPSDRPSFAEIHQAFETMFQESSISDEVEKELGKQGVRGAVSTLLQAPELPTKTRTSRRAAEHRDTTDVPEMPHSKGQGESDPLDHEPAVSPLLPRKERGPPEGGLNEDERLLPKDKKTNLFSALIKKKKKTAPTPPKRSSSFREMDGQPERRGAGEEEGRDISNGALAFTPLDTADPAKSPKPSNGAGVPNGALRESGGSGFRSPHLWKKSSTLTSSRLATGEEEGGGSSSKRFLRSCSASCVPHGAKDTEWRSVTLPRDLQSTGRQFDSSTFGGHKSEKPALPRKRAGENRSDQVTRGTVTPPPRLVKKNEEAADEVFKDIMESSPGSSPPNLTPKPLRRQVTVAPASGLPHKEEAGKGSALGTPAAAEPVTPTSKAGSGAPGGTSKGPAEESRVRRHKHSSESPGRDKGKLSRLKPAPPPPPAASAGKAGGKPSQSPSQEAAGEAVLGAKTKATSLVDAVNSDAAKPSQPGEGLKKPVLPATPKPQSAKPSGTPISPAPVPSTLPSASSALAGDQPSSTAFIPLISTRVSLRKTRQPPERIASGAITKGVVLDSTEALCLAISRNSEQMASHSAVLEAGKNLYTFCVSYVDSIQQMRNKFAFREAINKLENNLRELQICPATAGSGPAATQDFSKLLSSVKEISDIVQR
Chain of TNIK/MAP4K7 (Q9UKE5 whole entry): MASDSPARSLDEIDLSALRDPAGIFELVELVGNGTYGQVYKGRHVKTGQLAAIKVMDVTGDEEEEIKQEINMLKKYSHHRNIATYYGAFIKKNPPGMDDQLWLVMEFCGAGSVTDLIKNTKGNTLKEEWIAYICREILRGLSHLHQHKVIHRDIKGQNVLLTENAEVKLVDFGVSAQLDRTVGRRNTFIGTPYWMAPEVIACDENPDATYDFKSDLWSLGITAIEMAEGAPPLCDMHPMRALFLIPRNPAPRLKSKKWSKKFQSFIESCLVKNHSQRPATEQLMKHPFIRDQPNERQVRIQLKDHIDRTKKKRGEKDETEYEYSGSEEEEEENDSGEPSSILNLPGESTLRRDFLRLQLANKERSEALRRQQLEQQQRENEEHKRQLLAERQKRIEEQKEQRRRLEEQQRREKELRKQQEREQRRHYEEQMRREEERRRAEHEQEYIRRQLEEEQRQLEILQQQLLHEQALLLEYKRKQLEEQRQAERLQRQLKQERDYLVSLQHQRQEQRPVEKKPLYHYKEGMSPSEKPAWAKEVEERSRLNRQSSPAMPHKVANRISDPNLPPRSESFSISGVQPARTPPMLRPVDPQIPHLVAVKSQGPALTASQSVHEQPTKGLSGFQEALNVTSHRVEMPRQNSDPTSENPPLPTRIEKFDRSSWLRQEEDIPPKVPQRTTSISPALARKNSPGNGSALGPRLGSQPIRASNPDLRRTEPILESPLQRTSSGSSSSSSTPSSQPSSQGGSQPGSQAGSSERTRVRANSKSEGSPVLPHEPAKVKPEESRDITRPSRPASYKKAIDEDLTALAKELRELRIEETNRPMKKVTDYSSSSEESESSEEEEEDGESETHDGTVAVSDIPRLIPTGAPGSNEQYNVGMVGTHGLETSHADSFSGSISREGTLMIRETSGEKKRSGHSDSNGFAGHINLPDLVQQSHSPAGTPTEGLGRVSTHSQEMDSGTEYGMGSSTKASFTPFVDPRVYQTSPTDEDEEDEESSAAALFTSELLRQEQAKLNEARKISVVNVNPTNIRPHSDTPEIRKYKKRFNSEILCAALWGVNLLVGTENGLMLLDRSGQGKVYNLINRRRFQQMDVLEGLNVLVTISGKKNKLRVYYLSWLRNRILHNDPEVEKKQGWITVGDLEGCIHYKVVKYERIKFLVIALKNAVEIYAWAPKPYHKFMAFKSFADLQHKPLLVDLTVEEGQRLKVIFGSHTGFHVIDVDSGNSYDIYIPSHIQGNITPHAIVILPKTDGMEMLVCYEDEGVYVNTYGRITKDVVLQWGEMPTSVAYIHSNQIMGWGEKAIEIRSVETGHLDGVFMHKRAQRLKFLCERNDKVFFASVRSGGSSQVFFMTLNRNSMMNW
Chain of MINK1/MAP4K6 (Q8N4C8 whole entry): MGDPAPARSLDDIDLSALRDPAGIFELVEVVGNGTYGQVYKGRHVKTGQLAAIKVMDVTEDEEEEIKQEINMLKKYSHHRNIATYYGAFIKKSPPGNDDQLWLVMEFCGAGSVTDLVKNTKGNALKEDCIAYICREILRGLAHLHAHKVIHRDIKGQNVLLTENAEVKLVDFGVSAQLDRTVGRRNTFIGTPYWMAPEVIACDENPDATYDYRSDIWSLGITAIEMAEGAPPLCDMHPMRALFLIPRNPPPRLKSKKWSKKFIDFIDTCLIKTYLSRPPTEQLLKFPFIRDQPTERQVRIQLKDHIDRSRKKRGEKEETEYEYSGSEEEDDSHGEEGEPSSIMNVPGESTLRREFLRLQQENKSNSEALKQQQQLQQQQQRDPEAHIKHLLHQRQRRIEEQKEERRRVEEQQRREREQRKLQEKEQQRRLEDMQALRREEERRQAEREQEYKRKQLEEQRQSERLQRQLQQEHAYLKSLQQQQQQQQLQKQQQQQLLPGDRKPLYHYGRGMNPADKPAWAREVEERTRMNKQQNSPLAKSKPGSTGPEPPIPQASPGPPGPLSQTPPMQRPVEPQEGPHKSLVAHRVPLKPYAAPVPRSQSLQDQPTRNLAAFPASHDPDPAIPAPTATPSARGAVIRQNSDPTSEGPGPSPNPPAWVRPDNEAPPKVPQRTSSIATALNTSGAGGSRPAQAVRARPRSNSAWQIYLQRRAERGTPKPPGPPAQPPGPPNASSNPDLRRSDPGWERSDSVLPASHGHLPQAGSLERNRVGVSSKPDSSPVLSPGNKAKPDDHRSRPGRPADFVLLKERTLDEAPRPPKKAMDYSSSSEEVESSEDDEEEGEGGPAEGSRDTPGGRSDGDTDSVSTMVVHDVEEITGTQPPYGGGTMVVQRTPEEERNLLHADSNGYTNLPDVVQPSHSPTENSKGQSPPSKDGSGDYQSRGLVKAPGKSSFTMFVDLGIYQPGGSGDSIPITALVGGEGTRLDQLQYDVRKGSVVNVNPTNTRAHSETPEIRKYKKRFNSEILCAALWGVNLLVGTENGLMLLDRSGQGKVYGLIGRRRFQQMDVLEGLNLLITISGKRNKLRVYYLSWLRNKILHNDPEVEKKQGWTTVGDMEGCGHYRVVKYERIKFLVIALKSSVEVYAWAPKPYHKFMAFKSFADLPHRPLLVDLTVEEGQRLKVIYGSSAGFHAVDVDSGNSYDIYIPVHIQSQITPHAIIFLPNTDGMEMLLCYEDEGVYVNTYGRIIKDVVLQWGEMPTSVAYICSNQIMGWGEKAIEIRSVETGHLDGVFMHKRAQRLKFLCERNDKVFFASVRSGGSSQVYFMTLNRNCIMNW
Chain of MLK3/MAP3K11 (Q16584 whole entry): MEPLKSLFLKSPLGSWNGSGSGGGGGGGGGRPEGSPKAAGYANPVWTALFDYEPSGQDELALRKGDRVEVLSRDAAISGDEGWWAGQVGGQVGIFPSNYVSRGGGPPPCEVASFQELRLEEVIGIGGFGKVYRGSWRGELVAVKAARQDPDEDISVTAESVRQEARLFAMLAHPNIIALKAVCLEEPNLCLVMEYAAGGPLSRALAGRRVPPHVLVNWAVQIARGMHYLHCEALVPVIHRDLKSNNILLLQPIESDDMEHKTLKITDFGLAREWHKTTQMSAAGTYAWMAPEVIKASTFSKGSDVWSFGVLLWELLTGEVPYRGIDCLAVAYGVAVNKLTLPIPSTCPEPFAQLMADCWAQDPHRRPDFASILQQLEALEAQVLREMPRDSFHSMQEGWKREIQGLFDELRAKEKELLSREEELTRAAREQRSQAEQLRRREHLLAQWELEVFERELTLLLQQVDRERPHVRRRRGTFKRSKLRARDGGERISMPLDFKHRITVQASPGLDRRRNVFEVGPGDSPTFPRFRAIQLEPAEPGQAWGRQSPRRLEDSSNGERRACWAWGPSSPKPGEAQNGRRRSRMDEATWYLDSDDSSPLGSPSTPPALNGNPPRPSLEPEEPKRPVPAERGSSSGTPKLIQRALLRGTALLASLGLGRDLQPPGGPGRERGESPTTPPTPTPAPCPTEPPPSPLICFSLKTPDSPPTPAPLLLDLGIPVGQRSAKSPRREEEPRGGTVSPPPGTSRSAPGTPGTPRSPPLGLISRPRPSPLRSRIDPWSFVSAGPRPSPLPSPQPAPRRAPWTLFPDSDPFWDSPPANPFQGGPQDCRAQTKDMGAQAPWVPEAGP
Chain of Aurora B (Q96GD4 whole entry): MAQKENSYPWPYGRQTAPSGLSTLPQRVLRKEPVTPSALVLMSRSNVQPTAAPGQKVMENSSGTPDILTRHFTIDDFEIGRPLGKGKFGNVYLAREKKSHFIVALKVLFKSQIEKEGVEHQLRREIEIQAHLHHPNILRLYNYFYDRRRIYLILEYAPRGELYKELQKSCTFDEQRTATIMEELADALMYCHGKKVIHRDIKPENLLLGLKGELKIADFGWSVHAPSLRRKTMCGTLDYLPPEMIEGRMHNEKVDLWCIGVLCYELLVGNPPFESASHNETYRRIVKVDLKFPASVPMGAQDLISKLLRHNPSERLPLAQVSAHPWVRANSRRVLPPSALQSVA

| IC50 [1, 2] [nM] | IC50 [1, 3] [nM] | IC50 (TNIK/MAP4K7) [nM] | fold selectivity MAP4K4 over GCK/MAP4K2 (GCK/MAP4K2) | IC50 (GCK/MAP4K2) [nM] | fold selectivity MAP4K4 over GLK/MAP4K3 (GLK/MAP4K3) | IC50 (GLK/MAP4K3) [nM] | fold selectivity MAP4K4 over KHS/MAP4K5 (KHS/MAP4K5) | IC50 (KHS/MAP4K5) [nM] | fold selectivity MAP4K4 over ABL1 (ABL1) | IC50 (ABL1) [nM] | fold selectivity MAP4K4 over MLK3/MAP3K11 (MLK3/MAP3K11) | IC50 (MLK3/MAP3K11) [nM] | fold selectivity MAP4K4 over NUAK1 (NUAK1) | IC50 (NUAK1) [nM] | IC50 (MINK1/MAP4K6) [nM] | fold selectivity MAP4K4 over Aurora B (Aurora B) | IC50 (Aurora B; read-out: pIC50 Aurora B (converted)) [nM] | fold selectivity MAP4K4 over MLK1/MAP3K9 (MLK1/MAP3K9) | IC50 (MLK1/MAP3K9) [nM] | SMILES |
| --- | --- | --- | --- | --- | --- | --- | --- | --- | --- | --- | --- | --- | --- | --- | --- | --- | --- | --- | --- | --- |
| ≤ 100 | 25.1 | 200 | (79) fold | 2000 | (1000) fold | 25100 | (63) fold | 1580 | (>1000) fold | 31600 | (63) fold | 1580 | (50) fold | 1260 | – | – | – | – | – | COCCOc1ccc(-c2cn(-c3cccnc3)c3nc[nH]c(=O)c23)cc1 [Ex-67] |
| ≤ 100 | 12.6 | 50.1 | (79) fold | 1000 | – | – | (63) fold | 794 | (501) fold | 6310 | (79) fold | 1000 | (251) fold | 3160 | 31.6 | (501) fold | 6310 | (398) fold | 5010 | COCCOc1ccc(-c2cn(-c3ccncc3)c3nc[nH]c(=O)c23)cc1 [Ex-28] |
| ≤ 100 | 31.6 | 316 | (16) fold | 501 | – | – | – | – | – | – | (1) fold | 31.6 | (3) fold | 100 | 63.1 | – | – | (8) fold | 126 | O=c1[nH]cnc2c1c(-c1cnn(C3COC3)c1)cn2-c1ccccc1 [Ex-26] |
| ≤ 100 | 31.6 | 50.1 | (5) fold | 158 | (50) fold | 1580 | (6) fold | 200 | (126) fold | 3980 | (13) fold | 398 | (4) fold | 126 | 31.6 | – | – | (100) fold | 3160 | O=c1[nH]cnc2c1c(-c1ccc(OCC(O)CN3CCOCC3)cc1)cn2-c1cccnc1 (stereo not shown) [Ex-54] |
| ≤ 100 | 20 | 31.6 | (50) fold | 1000 | (>1000) fold | – | (50) fold | 1000 | – | – | (25) fold | 501 | (16) fold | 316 | 12.6 | (>1000) fold | – | (20) fold | 398 | COCCOc1ccc(-c2cn(-c3cccc(F)c3)c3nc[nH]c(=O)c23)cn1 [Ex-29] |
| ≤ 100 | 15.8 | 20 | (31) fold | 501 | – | – | – | – | – | – | (5) fold | 79.4 | (13) fold | 200 | 10 | – | – | (5) fold | 79.4 | O=c1[nH]cnc2c1c(-c1cnn(CCO)c1)cn2-c1ccccc1 [Ex-27] |

Reference: patent US12247045B2, “MAP4K4 inhibitors” (Imperial College Innovations Limited, priority 2018, dated 2025)
